This passage reports IC50 results from patent publication US8476256B2, “Diazonamide analogs” (Joyant Pharmaceuticals, Inc., priority 2008, dated 2013).

What is called IC50 is the concentration that gives 50% inhibition. Higher therefore signals a need for much substance.

For assay [1], the system named is A2058 (human melanoma) cell line. Kind of assay: Cell viability assay (CELL-TITER-GLO), A2058. Type of assay: cell-based. Conditions: A2058 cells, 48 hour treatment, 1 nM to 1 μM. The protocol: (§1) Cell viability assays were run using standard protocols known to those of skill in art. Cells were plated in 96 well plates at the density of 3,000-10,000 cells per well. Twenty four hours later, cells were treated with increasing concentration of test compounds (1 nM to 1 μM). After another 48 hour, cell survival was measured using CELL-TITER-GLO® reagent (Promega) following the protocol provided by the manufacture. The IC50 value was determined as the concentration of test compound that kills 50% of the cell population.
(§2) Cell viability data generated according to the protocol described herein was generated for representative compounds in the A2058 (human melanoma) and U937 (human leukemic monocyte lymphoma) cell lines. The compound of Example 16 (“Compound J”) was used as a reference compound.

In assay [2] the test system is U937 (human leukemic monocyte lymphoma) cell line. Kind of assay: Cell viability assay (CELL-TITER-GLO), U937. The format is cell-based. The settings on record: U-937, U937 cells, 48 hour treatment, 1 nM to 1 μM. The protocol:
as §1, §2

For the compound `CC(C)[C@H](O)C(=O)N[C@H]1Cc2ccc3c(c2)C24C5=C(N=C(O5)[C@H](C(C)C)NC1=O)c1nc(Cl)c(o1)-c1c(Cl)[nH]c5cccc(c15)-c1cccc2c1N[C@H]4O3` (stereo in doubt) [Example 85, Diazonamide A], the values for the IC50 in assay [1] and in assay [2] were 0.057 µM and 0.086 µM, respectively.

Regarding `CC(C)[C@@H]1NC(=O)[C@@H](NC(=O)[C@@H](O)c2ccccc2)Cc2ccc3c(c2)C24C5=C(N=C1O5)c1ncc(o1)-c1c[nH]c5cccc(c15)-c1cccc2c1N[C@H]4O3` (stereo partly drawn) [Example 17], the results for the IC50 in assay [1] and in assay [2] were 0.63 µM and 0.465 µM, respectively.

For `CC(C)[C@@H]1NC(=O)C(NC(=O)[C@H](C)O)Cc2ccc3c(c2)[C@]24C5=C(N=C1O5)c1ncc(o1)-c1c[nH]c5cccc(c15)-c1cccc2c1NC4O3` (stereo partly drawn) [Example 18], the IC50 in assay [1] turned out to be 0.394 µM; in assay [2] it was 0.208 µM.

As to `CC(C)[C@@H]1NC(=O)C(NC(=O)[C@@H](O)C(C)(C)C)Cc2ccc3c(c2)[C@]24C5=C(N=C1O5)c1ncc(o1)-c1c[nH]c5cccc(c15)-c1cccc2c1NC4O3` (stereo partly drawn) [Example 19], the IC50 came out at 0.222 µM in assay [1] and 0.062 µM in assay [2].

Regarding `CC(C)C[C@H](O)C(=O)NC1Cc2ccc3c(c2)[C@]24C5=C(N=C(O5)[C@H](C(C)C)NC1=O)c1ncc(o1)-c1c[nH]c5cccc(c15)-c1cccc2c1NC4O3` (stereo partly drawn) [Example 20], the IC50 in assay [1] stood at 0.158 µM; in assay [2], 0.142 µM.

Turning to `CC(C)[C@@H]1NC(=O)C(NC(=O)[C@@H](O)C2CCCCC2)Cc2ccc3c(c2)[C@]24C5=C(N=C1O5)c1ncc(o1)-c1c[nH]c5cccc(c15)-c1cccc2c1NC4O3` (stereo partly drawn) [Example 21], the IC50 in assay [1] and in assay [2] was greater than 1 µM throughout.

Consider `CC(C)[C@@H]1NC(=O)C(NC(=O)C(C)(C)O)Cc2ccc3c(c2)[C@]24C5=C(N=C1O5)c1ncc(o1)-c1c[nH]c5cccc(c15)-c1cccc2c1NC4O3` (stereo partly drawn) [Example 22], for which the IC50 was 0.23 µM in assay [1] and 0.146 µM in assay [2].

With `CC(C)[C@@H]1NC(=O)C(NC(=O)C2(O)CC2)Cc2ccc3c(c2)[C@]24C5=C(N=C1O5)c1ncc(o1)-c1c[nH]c5cccc(c15)-c1cccc2c1NC4O3` (stereo partly drawn) [Example 25], the IC50 amounted to 0.769 µM in assay [1] and 0.42 µM in assay [2].

For the compound `CC(C)[C@@H]1NC(=O)C(NC(=O)C2(O)CCCC2)Cc2ccc3c(c2)[C@]24C5=C(N=C1O5)c1ncc(o1)-c1c[nH]c5cccc(c15)-c1cccc2c1NC4O3` (stereo partly drawn) [Example 26], the IC50 in assay [1] came to 0.214 µM; in assay [2] it was 0.154 µM.

Regarding `CC(C)[C@@H]1NC(=O)C(NC(=O)C2(O)CCCCC2)Cc2ccc3c(c2)[C@]24C5=C(N=C1O5)c1ncc(o1)-c1c[nH]c5cccc(c15)-c1cccc2c1NC4O3` (stereo partly drawn) [Example 27], the IC50 in assay [1] was found to be 0.181 µM; in assay [2], 0.128 µM.

With `CCC(CO)(CO)C(=O)NC1Cc2ccc3c(c2)[C@]24C5=C(N=C(O5)[C@H](C(C)C)NC1=O)c1ncc(o1)-c1c[nH]c5cccc(c15)-c1cccc2c1NC4O3` (stereo partly drawn) [Example 28], the IC50 in assay [1] was found to be 0.208 µM; in assay [2], 0.133 µM.

Regarding `CC(C)[C@@H]1NC(=O)C(NC(=O)[C@H](O)[C@@H](NC(=O)c2ccccc2)c2ccccc2)Cc2ccc3c(c2)[C@]24C5=C(N=C1O5)c1ncc(o1)-c1c[nH]c5cccc(c15)-c1cccc2c1NC4O3` (stereo partly drawn) [Example 29], the IC50 in assay [1] and in assay [2] was greater than 1 µM each time.

On to `CO[C@H](C(=O)N[C@H]1Cc2ccc3c(c2)C24C5=C(N=C(O5)[C@H](C(C)C)NC1=O)c1ncc(o1)-c1c[nH]c5cccc(c15)-c1cccc2c1N[C@H]4O3)C(C)C` (stereo partly drawn) [Example 30], for which the IC50 was found to be 0.197 µM in assay [1] and 0.224 µM in assay [2].

In the case of `CC(=O)O[C@H](C(=O)N[C@H]1Cc2ccc3c(c2)C24C5=C(N=C(O5)[C@H](C(C)C)NC1=O)c1ncc(o1)-c1c[nH]c5cccc(c15)-c1cccc2c1N[C@H]4O3)C(C)C` (stereo partly drawn) [Example 31], the IC50 in assay [1] turned out to be 0.194 µM; in assay [2], 0.062 µM.

`COC(=O)O[C@H](C(=O)N[C@H]1Cc2ccc3c(c2)C24C5=C(N=C(O5)[C@H](C(C)C)NC1=O)c1ncc(o1)-c1c[nH]c5cccc(c15)-c1cccc2c1N[C@H]4O3)C(C)C` (stereo partly drawn) [Example 32]: the values for the IC50 in assay [1] and in assay [2] were 0.211 µM and 0.157 µM, respectively.

In the case of `CC(C)[C@H](N)C(=O)N[C@H]1Cc2ccc3c(c2)C24C5=C(N=C(O5)[C@H](C(C)C)NC1=O)c1ncc(o1)-c1c[nH]c5cccc(c15)-c1cccc2c1N[C@H]4O3` (stereo partly drawn) [Example 33], the IC50 worked out at 1.44 µM in assay [1] and 0.572 µM in assay [2].

`CN[C@H](C(=O)N[C@H]1Cc2ccc3c(c2)C24C5=C(N=C(O5)[C@H](C(C)C)NC1=O)c1ncc(o1)-c1c[nH]c5cccc(c15)-c1cccc2c1N[C@H]4O3)C(C)C` (stereo partly drawn) [Example 34]: the IC50 was 0.221 µM in assay [1] and 0.393 µM in assay [2].

In the case of `CC(=O)N[C@H](C(=O)N[C@H]1Cc2ccc3c(c2)C24C5=C(N=C(O5)[C@H](C(C)C)NC1=O)c1ncc(o1)-c1c[nH]c5cccc(c15)-c1cccc2c1N[C@H]4O3)C(C)C` (stereo partly drawn) [Example 35], the results for the IC50 in assay [1] and in assay [2] were 0.232 µM and 0.183 µM, respectively.

Regarding `CC(C)C1NC(=O)[C@@H](NC(=O)[C@@H]2CCCN2)Cc2ccc3c(c2)C24C5=C(N=C1O5)c1ncc(o1)-c1c[nH]c5cccc(c15)-c1cccc2c1N[C@H]4O3` (stereo partly drawn) [Example 36], the IC50 in assay [1] and in assay [2] was greater than 1 µM each time.

For `CC(C)C1NC(=O)[C@@H](NC(=O)[C@@H]2C[C@@H](O)CN2)Cc2ccc3c(c2)C24C5=C(N=C1O5)c1ncc(o1)-c1c[nH]c5cccc(c15)-c1cccc2c1N[C@H]4O3` (stereo partly drawn) [Example 37], the IC50 in assay [1] and in assay [2] was greater than 1 µM in each case.

With `CC(C)CC(=O)N[C@H]1Cc2ccc3c(c2)[C@]24C5=C(N=C(O5)[C@H](C(C)C)NC1=O)c1ncc(o1)-c1c[nH]c5cccc(c15)-c1cccc2c1NC4O3` (stereo partly drawn) [Example 38], the figures for the IC50 in assay [1] and in assay [2] were 0.417 µM and 0.216 µM, respectively.

Regarding `CC[C@H](C)C(=O)NC1Cc2ccc3c(c2)[C@]24C5=C(N=C(O5)[C@H](C(C)C)NC1=O)c1ncc(o1)-c1c[nH]c5cccc(c15)-c1cccc2c1NC4O3` (stereo partly drawn) [Example 39], the IC50 was determined as 0.707 µM in assay [1] and 0.555 µM in assay [2].

As for `CCC(C)(C)C(=O)NC1Cc2ccc3c(c2)[C@]24C5=C(N=C(O5)[C@H](C(C)C)NC1=O)c1ncc(o1)-c1c[nH]c5cccc(c15)-c1cccc2c1NC4O3` (stereo partly drawn) [Example 40], the IC50 in assay [1] came out at 0.233 µM; in assay [2], 0.164 µM.

In the case of `CCCC(C)(C)C(=O)NC1Cc2ccc3c(c2)[C@]24C5=C(N=C(O5)[C@H](C(C)C)NC1=O)c1ncc(o1)-c1c[nH]c5cccc(c15)-c1cccc2c1NC4O3` (stereo partly drawn) [Example 41], the IC50 in assay [1] was determined as 0.397 µM; in assay [2], 0.22 µM.

Turning to `CC(C)=CC(=O)NC1Cc2ccc3c(c2)[C@]24C5=C(N=C(O5)[C@H](C(C)C)NC1=O)c1ncc(o1)-c1c[nH]c5cccc(c15)-c1cccc2c1NC4O3` (stereo partly drawn) [Example 42], the IC50 in assay [1] was 0.409 µM; in assay [2] it was 0.221 µM.

In the case of `CC/C=C/C(=O)NC1Cc2ccc3c(c2)[C@]24C5=C(N=C(O5)[C@H](C(C)C)NC1=O)c1ncc(o1)-c1c[nH]c5cccc(c15)-c1cccc2c1NC4O3` (stereo partly drawn) [Example 43], the figures for the IC50 in assay [1] and in assay [2] were 0.356 µM and 0.186 µM, respectively.

For the compound `CC/C=C(\C)C(=O)NC1Cc2ccc3c(c2)[C@]24C5=C(N=C(O5)[C@H](C(C)C)NC1=O)c1ncc(o1)-c1c[nH]c5cccc(c15)-c1cccc2c1NC4O3` (stereo partly drawn) [Example 44], the results for the IC50 in assay [1] and in assay [2] were 0.587 µM and 0.399 µM, respectively.

Regarding `CC(C)=CCC/C(C)=C/C(=O)NC1Cc2ccc3c(c2)[C@]24C5=C(N=C(O5)[C@H](C(C)C)NC1=O)c1ncc(o1)-c1c[nH]c5cccc(c15)-c1cccc2c1NC4O3` (stereo partly drawn) [Example 45], the IC50 in assay [1] was determined as 0.887 µM; in assay [2], 0.78 µM.

On to `CC(C)C(Br)C(=O)NC1Cc2ccc3c(c2)[C@]24C5=C(N=C(O5)[C@H](C(C)C)NC1=O)c1ncc(o1)-c1c[nH]c5cccc(c15)-c1cccc2c1NC4O3` (stereo partly drawn) [Example 46], for which the IC50 in assay [1] was 0.313 µM; in assay [2] it was 0.443 µM.

On to `CCCC(Br)C(=O)NC1Cc2ccc3c(c2)[C@]24C5=C(N=C(O5)[C@H](C(C)C)NC1=O)c1ncc(o1)-c1c[nH]c5cccc(c15)-c1cccc2c1NC4O3` (stereo partly drawn) [Example 47], for which the IC50 in assay [1] was found to be 0.546 µM; in assay [2] it was 0.323 µM.

As to `CC(C)[C@@H]1NC(=O)C(NC(=O)C2CC2)Cc2ccc3c(c2)[C@]24C5=C(N=C1O5)c1ncc(o1)-c1c[nH]c5cccc(c15)-c1cccc2c1NC4O3` (stereo partly drawn) [Example 48], the IC50 is 0.457 µM in assay [1] and 0.22 µM in assay [2].

As to `CC1CC1C(=O)NC1Cc2ccc3c(c2)[C@]24C5=C(N=C(O5)[C@H](C(C)C)NC1=O)c1ncc(o1)-c1c[nH]c5cccc(c15)-c1cccc2c1NC4O3` (stereo partly drawn) [Example 49], the IC50 in assay [1] stood at 0.443 µM; in assay [2], 0.245 µM.

Turning to `CC(C)[C@@H]1NC(=O)C(NC(=O)C2CCCC2)Cc2ccc3c(c2)[C@]24C5=C(N=C1O5)c1ncc(o1)-c1c[nH]c5cccc(c15)-c1cccc2c1NC4O3` (stereo partly drawn) [Example 50], the IC50 in assay [1] amounted to 0.339 µM; in assay [2], 0.331 µM.

In the case of `CC(C)[C@@H]1NC(=O)C(NC(=O)C2CCCCC2)Cc2ccc3c(c2)[C@]24C5=C(N=C1O5)c1ncc(o1)-c1c[nH]c5cccc(c15)-c1cccc2c1NC4O3` (stereo partly drawn) [Example 51], the IC50 was 0.235 µM in assay [1] and 0.276 µM in assay [2].

As to `CC(C)[C@@H]1NC(=O)C(NC(=O)C2(C)CCCCC2)Cc2ccc3c(c2)[C@]24C5=C(N=C1O5)c1ncc(o1)-c1c[nH]c5cccc(c15)-c1cccc2c1NC4O3` (stereo partly drawn) [Example 52], the IC50 in assay [1] worked out at 0.386 µM; in assay [2], 0.491 µM.

With `CC(C)[C@@H]1NC(=O)C(NC(=O)[C@@H]2CCOC2)Cc2ccc3c(c2)[C@]24C5=C(N=C1O5)c1ncc(o1)-c1c[nH]c5cccc(c15)-c1cccc2c1NC4O3` (stereo partly drawn) [Example 54], the half-maximal inhibitory concentration (IC50) turned out to be 0.081 µM in assay [1] and 0.078 µM in assay [2].
